Publication doi:10.1101/2023.07.10.548257 (bioRxiv, 2024)
Positions count from the first letter of the chain named.

Experiments:
full-length SHP2^WT = molecular target: T1, full-length SHP2^WT (Homo sapiens, UniProt Q06124); assay: SHP2 activation assay using phosphopeptides (DiFMUP), SHP2 WT; format: biochemical; settings: activation of full-length SHP2 WT (0.05 nM) by phosphopeptide; DiFMUP substrate; 60 mM HEPES pH 7.2, 75 mM KCl, 75 mM NaCl, 1 mM EDTA, 0.05% Tween-20, 0.5 mM TCEP; fluorescence read every 25 s for 6 min; mean of N (column N)
T1 construct: Full-length SHP2 constructs were diluted in assay buffer; His6-TEV (N, cleaved yes); made in house; host or cells: E. coli BL21(DE3)
T1 sequence (Q06124 1-593): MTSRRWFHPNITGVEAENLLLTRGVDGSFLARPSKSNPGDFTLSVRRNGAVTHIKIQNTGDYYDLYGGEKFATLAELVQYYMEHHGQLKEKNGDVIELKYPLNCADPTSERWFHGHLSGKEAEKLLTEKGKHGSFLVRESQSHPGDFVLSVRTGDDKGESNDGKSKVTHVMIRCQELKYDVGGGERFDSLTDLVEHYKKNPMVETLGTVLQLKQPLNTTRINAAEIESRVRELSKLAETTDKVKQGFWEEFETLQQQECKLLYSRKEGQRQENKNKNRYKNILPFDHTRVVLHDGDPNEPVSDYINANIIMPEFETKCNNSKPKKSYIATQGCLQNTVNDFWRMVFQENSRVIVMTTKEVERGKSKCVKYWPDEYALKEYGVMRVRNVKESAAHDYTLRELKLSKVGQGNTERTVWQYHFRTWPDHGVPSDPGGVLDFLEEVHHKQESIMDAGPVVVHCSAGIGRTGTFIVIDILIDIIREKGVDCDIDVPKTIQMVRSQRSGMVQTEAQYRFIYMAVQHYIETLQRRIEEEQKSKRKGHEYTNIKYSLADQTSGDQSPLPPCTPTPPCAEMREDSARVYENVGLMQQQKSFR
Description: SHP2 activation assays using phosphopeptides
Full-length SHP2 constructs were diluted in assay buffer (60 mM HEPES pH 7.2, 75 mM KCl, 75 mM NaCl,1 mM EDTA, 0.05% Tween-20, with 0.5 mM TCEP freshly added) to a 2X concentration of 0.1 nM. Peptides were serially diluted in assay buffer, with the last point of the concentration series fully without peptide. 15 μL of peptide and 15 μL of 800 μM DiFMUP was added to a black 96-well half area plate. Right before starting the plate reader assay, 30 μL SHP2 was added to each well a Supplementary Information - page 4 of 18 […]
final concentration of 0.05nM. Kinetic measurements (Ex 358/Em […]) were taken on a BioTek Neo2 plate reader every 25 seconds for 6 minutes. […]
OD600 reached 0.5. 20 mL of cell suspension was induced at 25 °C using a final concentration of 0.4% arabinose until the OD600 ~ 1 (after approximately 4 hours). The cells were spun down at 4000 rpm for 15 minutes, and the pellet was resuspended in PBS so that the OD600 ~1.5. The cells were stored in the fridge and used within a week.
For each sample, 75 μL of Dynabeads™ FlowComp™ Flexi Kit were washed twice in 1 mL SH2 buffer (50 mM HEPES pH 7.5, 150 mM NaCl, 1 mM TCEP, and 0.2% BSA) on a magnetic rack.
The beads were then resuspended in 75 μL of SH2 buffer. SH2 domains were thawed quickly and 20 μM of protein was added to the beads. SH2 buffer was added up to 150 μL, and the suspension was incubated for 1 hour at 4 °C while rotating. After 1 hour, the suspension was placed on a magnetic rack and washed twice with 1 mL SH2 buffer.
Preparing the phosphorylated cells
150 μL of prepared cells per sample were spun down for 4000 rpm for 5 minutes at 4 °C.
Kinase screen buffer was prepared (50 mM Tris, 10 mM magnesium chloride, 150 mM sodium chloride; add 2 mM sodium orthovanadate and 1 mM TCEP fresh) and the cells of each sample were resuspended in 100 μL kinase screen buffer. Kinases c-Src, c-Abl, AncSZ, Eph1B were added to a final concentration of 2.5 µM each, creatine phosphate was added to a final concentration of 5 mM, and phosphokinase was added to a final concentration of 50 µg/mL. The suspension was incubated at 37 °C for 5 minutes before ATP was added to a final concentration of 1 mM. This mixture was incubated at 37 °C for 3 hours. After 3 hours, EDTA was added to a final concentration of 25 mM to quench the reaction. The input library control sample was not phosphorylated. These cells were spun down at 4000 rpm for 15 minutes at 4 °C. The cells were then resuspended in 100 µL of SH2 buffer + 0.1% BSA. Phosphorylation of the cells was confirmed by labeling with the PY20-PerCP-eFluor 710 pan-phosphotyrosine antibody followed by analysis via flow cytometry.
Enriching for cells displaying high-affinity phosphopeptide ligands
100 μL of phosphorylated cells were mixed with 75 µL SH2-beads for 1 hour at 4 °C while rotating. After 1 hour, samples were placed on a magnetic rack, supernatant was removed and 1 mL SH2 buffer was added to each sample. This was rotated for 30 minutes at 4 °C to wash the beads.
After this wash, the beads were placed on a magnetic rack, the supernatant was removed and 50 µL […]
Preparing sequencing samples & deep sequencing
All SH2-selected samples and the input library control were resuspended in 50 µL MilliQ water, vortexed, and boiled for 10 minutes at 100 °C. The boiled lysate was used as the DNA template in a PCR reaction using the TruSeq-eCPX-Fwd and TruSeq-eCPX-Rev primers. The mixture resulting from this PCR was used directly into a second PCR to append Illumina sequencing adaptors and Supplementary Information - page 5 of 18

full-length SHP2^T42A = molecular target: T2, full-length SHP2^T42A (Homo sapiens, UniProt Q06124, T42A); assay: SHP2 activation assay using phosphopeptides (DiFMUP), SHP2 T42A; format: biochemical; settings: activation of full-length SHP2 T42A (0.05 nM) by phosphopeptide; DiFMUP substrate; HEPES pH 7.2 assay buffer; mean of N (column N)
T2 construct: Full-length SHP2 constructs were diluted in assay buffer; His6-TEV (N, cleaved yes); made in house; host or cells: E. coli BL21(DE3)
T2 sequence (Q06124 1-593 T42A): T1 sequence (Q06124 1-593) with T42A

SMILES | EC50 (full-length SHP2^WT) | EC50 (full-length SHP2^T42A)
CC[C@H](C)[C@H](NC(=O)[C@@H](NC(=O)[C@H](C)NC(=O)[C@H](Cc1ccc(OP(=O)(O)O)cc1)NC(=O)[C@@H](NC(=O)[C@@H]1CCCN1C(=O)[C@H](CCC(=O)O)NC(=O)[C@@H]1CCCN1C(=O)[C@H](CO)NC(=O)[C@@H](NC(C)=O)C(C)C)[C@@H](C)CC)[C@@H](C)O)C(=O)N[C@@H](CC(=O)O)C(=O)N[C@@H](CC(=O)O)C(=O)N[C@@H](CC(C)C)C(N)=O | 39.4 µM | 6.96 µM
CC(=O)N[C@@H](C)C(=O)N[C@@H](CCCCN)C(=O)N[C@@H](CO)C(=O)NCC(=O)N[C@@H](C)C(=O)N[C@H](C(=O)N[C@@H](Cc1ccc(OP(=O)(O)O)cc1)C(=O)N[C@@H](CO)C(=O)N[C@@H](CCC(=O)O)C(=O)N[C@@H](CC(C)C)C(=O)N[C@@H](CC(N)=O)C(=O)N[C@@H](Cc1ccccc1)C(=O)NCC(N)=O)C(C)C | 233 µM | 32.7 µM
CC[C@H](C)[C@H](NC(=O)[C@H](CC(=O)O)NC(=O)[C@H](C)NC(=O)[C@H](Cc1ccc(OP(=O)(O)O)cc1)NC(=O)[C@H](CCCCN)NC(=O)[C@@H](NC(=O)[C@H](CC(=O)O)NC(=O)CNC(=O)[C@H](CCCCN)NC(=O)[C@H](CCSC)NC(C)=O)C(C)C)C(=O)N[C@@H](CCC(=O)O)C(=O)N[C@@H](CO)C(=O)N[C@@H](CO)C(N)=O | 90.5 µM | 15.1 µM
CC[C@H](C)[C@H](NC(=O)[C@@H](NC(=O)[C@H](C)NC(=O)[C@H](Cc1ccc(OP(=O)(O)O)cc1)NC(=O)[C@H](CCC(=O)O)NC(=O)[C@@H](NC(=O)[C@H](CCC(N)=O)NC(=O)[C@H](CCC(=O)O)NC(=O)[C@@H]1CCCN1C(=O)[C@@H](NC(C)=O)C(C)C)[C@@H](C)O)[C@@H](C)O)C(=O)N[C@H](C(=O)N[C@@H](Cc1ccccc1)C(=O)N1CCC[C@H]1C(N)=O)C(C)C | 5.37 µM | 0.88 µM
CSCC[C@H](NC(=O)[C@H](CC(C)C)NC(=O)[C@H](CCC(N)=O)NC(=O)[C@H](C)NC(=O)[C@H](Cc1ccc(OP(=O)(O)O)cc1)NC(=O)[C@H](CC(N)=O)NC(=O)[C@H](CC(C)C)NC(=O)[C@H](C)NC(=O)[C@H](C)NC(=O)[C@H](CCCCN)NC(=O)[C@H](CCCCN)NC(C)=O)C(=O)N[C@@H](Cc1ccccc1)C(=O)N1CCC[C@H]1C(N)=O | 1.32 µM | 0.735 µM
CC[C@H](C)[C@H](NC(=O)[C@H](CC(N)=O)NC(=O)[C@@H](NC(=O)[C@H](Cc1ccc(OP(=O)(O)O)cc1)NC(=O)[C@H](CCC(=O)O)NC(=O)CNC(=O)[C@@H]1CCCN1C(=O)[C@H](CO)NC(=O)[C@H](CCCCN)NC(=O)[C@@H]1CCCN1C(C)=O)C(C)C)C(=O)N[C@@H](CCC(=O)O)C(=O)N[C@@H](Cc1ccccc1)C(=O)NCC(N)=O | 29.3 µM | 20 µM
CC(=O)N[C@@H](CO)C(=O)N[C@H](C(=O)NCC(=O)N[C@@H](CO)C(=O)N[C@H](C(=O)N[C@@H](CC(=O)O)C(=O)N[C@@H](Cc1ccc(OP(=O)(O)O)cc1)C(=O)N[C@@H](CC(C)C)C(=O)N[C@@H](C)C(=O)N[C@@H](CC(C)C)C(=O)N[C@@H](CC(=O)O)C(=O)N[C@@H](Cc1ccccc1)C(=O)N[C@@H](CCC(N)=O)C(N)=O)C(C)C)[C@@H](C)O | 8.52 µM | 0.902 µM
CC(=O)N1CCC[C@H]1C(=O)N[C@H](C(=O)N[C@@H](Cc1ccccc1)C(=O)N[C@@H](CO)C(=O)N[C@H](C(=O)N[C@@H](CC(=O)O)C(=O)N[C@@H](Cc1ccc(OP(=O)(O)O)cc1)C(=O)NCC(=O)N[C@@H](CCC(=O)O)C(=O)N[C@@H](CC(C)C)C(=O)N[C@@H](CC(=O)O)C(=O)N[C@@H](Cc1ccccc1)C(=O)N[C@@H](CCC(N)=O)C(N)=O)C(C)C)C(C)C | 18.9 µM | 2.89 µM
CC[C@H](C)[C@H](NC(=O)[C@H](Cc1ccc(OP(=O)(O)O)cc1)NC(=O)[C@H](CC(N)=O)NC(=O)[C@H](CC(C)C)NC(=O)CNC(=O)[C@H](CC(N)=O)NC(=O)[C@H](CCC(=O)O)NC(=O)[C@H](CC(C)C)NC(C)=O)C(=O)N[C@@H](CC(=O)O)C(=O)N[C@@H](CC(C)C)C(=O)N[C@@H](CC(=O)O)C(=O)N[C@@H](CC(C)C)C(=O)N[C@H](C(N)=O)C(C)C | 1.75 µM | 0.581 µM
